Experimental data published in ChEMBL document CHEMBL2401728, “An unexpected Dimroth rearrangement leading to annelated thieno[3,2-d][1,2,3]triazolo[1,5-a]pyrimidines with potent antitumor activity” (Eur J Med Chem, 2013).

Legend:
[1] = Cytotoxicity against human renal cancer cells assessed as cellular growth at 10 uM after 48 hrs by SRB assay relative to control; type: functional, Cancer cell lines
[2] = Cytotoxicity against human ovarian cancer cells assessed as cellular growth at 10 uM after 48 hrs by SRB assay relative to control; type: functional, Cancer cell lines
[3] = Cytotoxicity against human prostate cancer cells assessed as cellular growth at 10 uM after 48 hrs by SRB assay relative to control; type: functional, Cancer cell lines
[4] = Cytotoxicity against human non-small cell lung cancer cells assessed as cellular growth at 10 uM after 48 hrs by SRB assay relative to control; type: functional, Cancer cell lines
[5] = Cytotoxicity against human melanoma cells assessed as cellular growth at 10 uM after 48 hrs by SRB assay relative to control; type: functional, Melanoma cell
[6] = Cytotoxicity against human leukemia cells assessed as cellular growth at 10 uM after 48 hrs by SRB assay relative to control; type: functional, Leukemia cell
[7] = Cytotoxicity against human colon cancer cells assessed as cellular growth at 10 uM after 48 hrs by SRB assay relative to control; type: functional, Cancer cell lines
[8] = Cytotoxicity against human CNS cancer cells assessed as cellular growth at 10 uM after 48 hrs by SRB assay relative to control; type: functional, Cancer cell lines
[9] = Cytotoxicity against human breast cancer cells assessed as cellular growth at 10 uM after 48 hrs by SRB assay relative to control; type: functional, Cancer cell lines
[10] = tested on: CCRF-CEM; assay: Cytotoxicity against human CCRF-CEM cells after 48 hrs by SRB assay; type: functional
[11] = tested on: MCF7; assay: Cytotoxicity against human MCF7 cells after 48 hrs by SRB assay; type: functional; settings: MCF7, 48 h
[12] = tested on: MDA-MB-435; assay: Cytotoxicity against human MDA-MB-435 cells after 48 hrs by SRB assay; type: functional; settings: MDA-MB-435, 48 h, read-out: pLC50 (the source's name) (converted)
[13] = tested on: SNB-19; assay: Cytotoxicity against human SNB19 cells after 48 hrs by SRB assay; type: functional; settings: SNB-19, 48 h, read-out: pLC50 (the source's name) (converted)
[14] = tested on: HCT-15; assay: Cytotoxicity against human HCT15 cells after 48 hrs by SRB assay; type: functional; settings: HCT-15, 48 h, read-out: pTGI (converted)
[15] = tested on: HT-29; assay: Cytotoxicity against human HT-29 cells after 48 hrs by SRB assay; type: functional; settings: HT-29, 48 h, read-out: pLC50 (the source's name) (converted)
[16] = tested on: HCC 2998; assay: Cytotoxicity against human HCC2998 cells after 48 hrs by SRB assay; type: functional; settings: HCC 2998, 48 h, read-out: pLC50 (the source's name) (converted)
[17] = tested on: A549; assay: Cytotoxicity against human A549 cells after 48 hrs by SRB assay; type: functional; settings: A549, 48 h, read-out: pLC50 (converted)
[18] = Cytotoxicity against human EKVX cells after 48 hrs by SRB assay; type: functional; settings: read-out: pLC50 (the source's name) (converted)
[19] = tested on: RPMI-8226; assay: Cytotoxicity against human RPMI8226 cells after 48 hrs by SRB assay; type: functional; settings: RPMI-8226, 48 h, read-out: pLC50 (converted)
[20] = tested on: K562; assay: Cytotoxicity against human K562 cells after 48 hrs by SRB assay; type: functional; settings: K562, 48 h, read-out: pLC50 (the source's name) (converted)
[21] = tested on: MOLT-4; assay: Cytotoxicity against human MOLT4 cells after 48 hrs by SRB assay; type: functional; settings: MOLT-4, 48 h, read-out: pLC50 (the source's name) (converted)

Row | Structure (SMILES) | Activity [1] | Activity [2] | Activity [3] | Activity [4] | Activity [5] | Activity [6] | Activity [7] | Activity [8] | Activity [9] | also measured
1 | CN1CCN(CCCn2c(=O)c3sc4ncccc4c3n3nnc(-c4ccccc4)c23)CC1 | -14% | 7% | 39% | 14% | -78% | -22% | -37% | -43% | -23% | 
2 | O=C(CCCn1c(=O)c2sc3ccccc3c2n2nnc(-c3ccccc3)c12)NCCc1c[nH]cn1 | -34% | -16% | -41% | -26% | -57% | 71% | -49% | -18% | -5% | TGI ([10]; read-out: pTGI (converted)): 100 µM
3 | O=C(CCCn1c(=O)c2sc3ncccc3c2n2nnc(-c3ccccc3)c12)NCCc1c[nH]cn1 | 79% | 59% | 46% | 88% | 71% | 61% | 49% | 60% | 79% | LC50 ([11]; read-out: pLC50 (converted)): > 100 µM; TGI ([11]; read-out: pTGI (converted)): 100 µM; CC50 [12]: > 100 µM; CC50 [13]: > 100 µM; TGI [14]: 100 µM; CC50 [15]: > 100 µM; CC50 [16]: > 100 µM; CC50 [17]: > 100 µM; CC50 [18]: > 100 µM; CC50 [19]: > 100 µM; CC50 [20]: > 100 µM; CC50 [21]: > 100 µM; CC50 ([10]; read-out: pLC50 (the source's name) (converted)): > 100 µM
